The text below walks through data of PubChem BioAssay (NCI).

Each structure is given as a SMILES string.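 Exposure lasted 48 hours, with cells grown in 96-well plates and compounds tested at five concentrations. TGI: concentration producing complete growth inhibition.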

What all share (assay): growth of human tumour cells (NCI), 48 h
The test system of assay [1] is HCT-116 colon.
Assay [2] concerns OVCAR-8 ovarian.
Assay [3] has as its system PC-3 prostate.
Assay [4] relates to CAKI-1 renal.
The subject of assay [5] is SNB-75 CNS.
Assay [6] has as its system SK-MEL-28 melanoma.
In assay [7] the test system is OVCAR-3 ovarian.
Assay [8] has as its system ACHN renal.
Assay [9] has as its system U251 CNS.
In assay [10] the test system is SF-539 CNS.
Assay [11] has as its system NCI/ADR-RES ovarian.
Assay [12] has as its system SF-295 CNS.
Assay [13] relates to A549 NSCLC.
Assay [14] concerns DU-145 prostate.
The test system of assay [15] is NCI-H226 lung.
For assay [16], the system named is SF-268 CNS.
For assay [17], the system named is NCI-H460 lung.
Assay [18] concerns NCI-H522 lung.
Assay [19] has as its system UO-31 renal.
Assay [20] deals with KM12 colon.

For `Cc1cc(-c2nc3cc(F)ccc3s2)ccc1NC(=O)C(C)N` (stereo not given), the TGI is 6.57 µM in assay [1]; 8.62 µM in assay [2]; 8.71 µM in assay [3]; 8.64 µM in [4]; 10.6 µM in assay [5]; 11 µM in [6]. Moreover, the TGI in assay [7] stood at 7.32 µM; in [8], 7.83 µM; in assay [9] it was 9.42 µM; in assay [10], 14.2 µM; in assay [11], 10.2 µM; in [12] it was 7.94 µM. Also, the TGI was 7.72 µM in [13]; 8.17 µM in [14]; over 25 µM in assay [15]; 9.5 µM in assay [16]; 5.98 µM in assay [17]; 7.99 µM in assay [18]. The TGI in assay [19] amounted to 7.05 µM; in assay [20] it was 9.36 µM.

On to `NC(N)=NS(=O)(=O)c1ccc(NNc2c3ccccc3nc3c(C(=O)Nc4ccc(S(N)(=O)=O)cc4)cccc23)cc1`, for which the TGI in [1], in [2], in assay [3], in assay [4], in [5] and in [6] was over 100 µM throughout. Also, the TGI in [7] is over 100 µM; in [8], over 100 µM; in [9], 83.9 µM; in assay [10], over 100 µM; in assay [11], over 100 µM; in assay [12] it was over 100 µM. Further, the TGI in [13], in assay [14], in assay [15], in [16], in assay [17] and in [18] was over 100 µM in each case. The TGI in assay [19] and in assay [20] was over 100 µM each time.

As to `COc1ccc2c(c1)c1c3c(ccc4ncn2c43)N(CCN(C)C)CCN=1`, the TGI in assay [1] worked out at 1.52 µM; in assay [2], 1.56 µM; in assay [3], 1.62 µM; in [4] it was 9.13 µM; in assay [5], 2.26 µM; in assay [6], 2.45 µM. Besides, the TGI in assay [7] was determined as 2.4 µM; in assay [8], 5.39 µM; in assay [9] it was 1.41 µM; in [10], 1.1 µM; in [11], 1.96 µM; in [12], 1.62 µM. Moreover, the TGI is 2.04 µM in assay [13]; 5.2 µM in [14]; 2.89 µM in assay [15]; 4.24 µM in assay [16]; 0.76 µM in assay [17]; 0.806 µM in assay [18]. Also, the values for the TGI in assay [19] and in [20] were 1.74 µM and 1.7 µM, respectively.

As to `Cc1cc(Br)cc(C)c1NC(=O)C(=O)C1C(=O)C(CC2C(=O)c3ccccc3C2=O)C(=O)CC1(C)C` (stereo not given), the TGI in assay [1], in [2], in [3], in assay [4], in [5] and in assay [6] was over 100 µM in each case. For the same molecule, the TGI in [7], in [8], in assay [9], in assay [10], in [11] and in [12] was over 100 µM throughout. Also, the TGI in [13], in [14], in assay [15], in assay [16], in assay [17] and in assay [18] was over 100 µM throughout. For the same molecule, the TGI was 92.7 µM in [19] and over 100 µM in [20].

Turning to `COc1ccc(C2C(Cl)C(=O)N2NC(=O)c2ccc(N)cc2)cc1OC` (stereo not given), the TGI in assay [1] was 3 µM; in assay [2] it was 16.4 µM; in [3], 25.7 µM; in assay [4] it was 6.84 µM; in assay [5] it was 33.3 µM; in assay [6] it was 17.6 µM. The TGI in assay [7] turned out to be 13.1 µM; in assay [8] it was 26.9 µM; in [9] it was 7.28 µM; in assay [10] it was 21.8 µM; in assay [11], 5.16 µM; in [12], 18.4 µM. Further, the TGI in assay [13] was found to be 34.1 µM; in assay [14] it was 32.1 µM; in assay [15], 38.3 µM; in [16], 36.8 µM; in assay [17] it was 51.8 µM; in assay [18] it was 3.75 µM. Also, the results for the TGI in assay [19] and in [20] were 25.7 µM and 5.64 µM, respectively.

In the case of `O=C(/C=C/c1ccc(F)c(F)c1)OCCc1ccccc1`, the TGI in [1], in [2], in assay [3], in assay [4], in [5] and in [6] was over 100 µM each time. The TGI in assay [7], in assay [8], in [9], in assay [10], in [11] and in [12] was over 100 µM throughout. Moreover, the TGI in [13], in assay [14], in assay [15], in assay [16], in assay [17] and in assay [18] was over 100 µM in each case. Besides, the TGI in [19] and in assay [20] was over 100 µM throughout.

`O=[N+]([O-])c1ccc(N2N=C(c3ccc4ccccc4c3O)CC2c2ccc(Cl)cc2Cl)c([N+](=O)[O-])c1` (stereo not given): the TGI in assay [1], in assay [2], in [3], in assay [4], in assay [5] and in assay [6] was over 100 µM throughout. Moreover, the TGI in assay [7] was over 100 µM; in assay [8] it was over 100 µM; in assay [9] it was over 100 µM; in assay [10], 70.6 µM; in assay [11], over 100 µM; in [12], over 100 µM. For the same molecule, the TGI in assay [13], in assay [14], in assay [15], in assay [16], in [17] and in assay [18] was over 100 µM throughout. Besides, the TGI in [19] and in [20] was over 100 µM throughout.
